Measured values as given in patent US12371454B2, “Cyclic peptide compound having Kras inhibitory action” (priority 2019, dated 2025).
Starred links: 1 amine or outer side, 2 acyl side, 3 side chain; linkers in the order of their positions; H or OH if unused. Positions of bridges follow the written chain, without caps; N, C: chain ends. Non-standard residues stand in square brackets, D forms with d. Residues, ends and D or L forms follow the SMILES beside them. *: point of attachment. hPhe(3-Cl-4-CF3) = N[C@@H](CCc1ccc(C(F)(F)F)c(Cl)c1)C(=O)O; X60 = CC(C)Oc1cc(CC[C@H](N[*:1])C(=O)[*:2])cc(Cl)c1Cl; X57 = N#Cc1cc(CC[C@H](N[*:1])C(=O)[*:2])ccc1C(F)(F)F; X75 = O=C([C@H](CCc1ccc2c(c1)OC(F)(F)O2)N[*:1])[*:2]; X68 = O=C([C@H](CCc1ccc(OC(F)F)c(F)c1)N[*:1])[*:2]; X34 = O=C([C@H](CCc1ccc(C(F)(F)F)nc1)N[*:1])[*:2]; X37 = O=C([C@H](CCc1ccc(C(F)F)c(F)c1)N[*:1])[*:2]; X85 = O=C([C@@H]1C[C@@H](n2ccnn2)CN1[*:1])[*:2]; X9 = O=C([C@H](CCc1ccc2cccnc2c1)N[*:1])[*:2]; X72 = COc1ccc(CC[C@H](N[*:1])C(=O)[*:2])cn1; NMeAla(cPent) = CN[C@@H](CC1CCCC1)C(=O)O; NMeGly(cPent) = CN[C@H](C(=O)O)C1CCCC1; NMeCha = CN[C@@H](CC1CCCCC1)C(=O)O; NMeD = CN[C@@H](CC(=O)O)C(=O)O; NMeL = CN[C@@H](CC(C)C)C(=O)O; NMeV = CN[C@H](C(=O)O)C(C)C; Azetidin(1-yl) = C1CN(*)C1; NMeA = CN[C@@H](C)C(=O)O; Piperidide = C1CCN(*)CC1; Pyrrolidide = C1CCN(*)C1; Ac5c = NC1(C(=O)O)CCCC1; Aze = O=C(O)[C@@H]1CCN1; Sar = CNCC(=O)O

System: Human pancreatic cancer cell line AsPC-1
Assay: Measurement of AsPC-1 cell growth inhibition (AsPC-1 CGI)
Assay type: cell-based
Conditions: 96 h
Procedure, shortened: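 AsPC-1 cells in 15% FBS RPMI-1640 were exposed to test compound for 96 hours at 37° C, with CellTiter-Glo as endpoint.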

SMILES | IC50
CC[C@H](C)[C@@H]1NC(=O)[C@H](CC(C)C)N(C)C(=O)C[C@@H](C(=O)N2CCCCC2)N(C)C(=O)[C@H](C2CCCC2)N(C)C(=O)C2(CCCC2)NC(=O)[C@@H]2CCCN2C(=O)[C@H](CCc2ccc(C(F)(F)F)c(C#N)c2)NC(=O)CN(C)C(=O)[C@H](CC2CCCCC2)N(C)C(=O)[C@@H]2CCN2C(=O)[C@H](C)N(C)C1=O [Compound 2072] ([NMeL]I[NMeA][Aze][NMeCha][Sar][X57]P[Ac5c][NMeGly(cPent)][NMeD]-Piperidide; lactam N-11) | 20 to 50 nM
CC[C@H](C)[C@@H]1NC(=O)[C@H](CC(C)C)N(C)C(=O)C[C@@H](C(=O)N2CCCCC2)N(C)C(=O)[C@H](C2CCCC2)N(C)C(=O)C2(CCCC2)NC(=O)[C@@H]2CCCN2C(=O)[C@H](CCc2ccc3c(c2)OC(F)(F)O3)NC(=O)CN(C)C(=O)[C@H](CC2CCCCC2)N(C)C(=O)[C@@H]2CCN2C(=O)[C@H](C)N(C)C1=O [Compound 2074] ([NMeL]I[NMeA][Aze][NMeCha][Sar][X75]P[Ac5c][NMeGly(cPent)][NMeD]-Piperidide; lactam N-11) | 50 to 100 nM
CC[C@H](C)[C@@H]1NC(=O)[C@H](CC(C)C)N(C)C(=O)C[C@@H](C(=O)N2CCCCC2)N(C)C(=O)[C@H](C2CCCC2)N(C)C(=O)C2(CCCC2)NC(=O)[C@@H]2CCCN2C(=O)[C@H](CCc2ccc(OC(F)F)c(F)c2)NC(=O)CN(C)C(=O)[C@H](CC2CCCCC2)N(C)C(=O)[C@@H]2CCN2C(=O)[C@H](C)N(C)C1=O [Compound 2076] ([NMeL]I[NMeA][Aze][NMeCha][Sar][X68]P[Ac5c][NMeGly(cPent)][NMeD]-Piperidide; lactam N-11) | 50 to 100 nM
CC[C@H](C)[C@@H]1NC(=O)[C@H](CC(C)C)N(C)C(=O)C[C@@H](C(=O)N2CCCCC2)N(C)C(=O)[C@H](C2CCCC2)N(C)C(=O)C2(CCCC2)NC(=O)[C@@H]2CCCN2C(=O)[C@H](CCc2ccc3cccnc3c2)NC(=O)CN(C)C(=O)[C@H](CC2CCCCC2)N(C)C(=O)[C@@H]2CCN2C(=O)[C@H](C)N(C)C1=O [Compound 2077] ([NMeL]I[NMeA][Aze][NMeCha][Sar][X9]P[Ac5c][NMeGly(cPent)][NMeD]-Piperidide; lactam N-11) | 100 to 500 nM
CC[C@H](C)[C@@H]1NC(=O)[C@H](CC(C)C)N(C)C(=O)C[C@@H](C(=O)N2CCCCC2)N(C)C(=O)[C@H](C2CCCC2)N(C)C(=O)C2(CCCC2)NC(=O)[C@@H]2CCCN2C(=O)[C@H](CCc2ccc(C(F)(F)F)nc2)NC(=O)CN(C)C(=O)[C@H](CC2CCCCC2)N(C)C(=O)[C@@H]2CCN2C(=O)[C@H](C)N(C)C1=O [Compound 2078] ([NMeL]I[NMeA][Aze][NMeCha][Sar][X34]P[Ac5c][NMeGly(cPent)][NMeD]-Piperidide; lactam N-11) | 100 to 500 nM
CC[C@H](C)[C@@H]1NC(=O)[C@H](C)N(C)C(=O)C[C@@H](C(=O)N2CCCCC2)N(C)C(=O)[C@H](C(C)C)N(C)C(=O)C2(CCCC2)NC(=O)[C@@H]2CCCN2C(=O)[C@H](CCc2cc(Cl)c(Cl)c(OC(C)C)c2)NC(=O)CN(C)C(=O)[C@H](CC2CCCCC2)N(C)C(=O)CN(C)C(=O)CN(C)C1=O [Compound 2079] ([NMeA]I[Sar][Sar][NMeCha][Sar][X60]P[Ac5c][NMeV][NMeD]-Piperidide; lactam N-11; C-terminus assumed) | > 500 nM
CC[C@H](C)[C@@H]1NC(=O)[C@H](CC(C)C)N(C)C(=O)C[C@@H](C(=O)N2CCCCC2)N(C)C(=O)[C@H](C2CCCC2)N(C)C(=O)C2(CCCC2)NC(=O)[C@@H]2CCCN2C(=O)[C@H](CCc2ccc(OC)nc2)NC(=O)CN(C)C(=O)[C@H](CC2CCCCC2)N(C)C(=O)[C@@H]2CCN2C(=O)[C@H](C)N(C)C1=O [Compound 2084] ([NMeL]I[NMeA][Aze][NMeCha][Sar][X72]P[Ac5c][NMeGly(cPent)][NMeD]-Piperidide; lactam N-11) | 100 to 500 nM
CC[C@H](C)[C@@H]1NC(=O)[C@H](CC(C)C)N(C)C(=O)C[C@@H](C(=O)N2CCCCC2)N(C)C(=O)[C@H](C2CCCC2)N(C)C(=O)C2(CCCC2)NC(=O)[C@@H]2CCCN2C(=O)[C@H](CCc2ccc(C(F)F)c(F)c2)NC(=O)CN(C)C(=O)[C@H](CC2CCCCC2)N(C)C(=O)[C@@H]2CCN2C(=O)[C@H](C)N(C)C1=O [Compound 2085, (5S,8S,11S,15S,18S,23aS,29S,35S,37aS)-8-((S)-sec-butyl)-35-(cyclohexylmethyl)-18-cyclopentyl-29-(4-(difluoromethyl)-3-fluorophenethyl)-11-isobutyl-5,6,12,16,19,33,36-heptamethyl-15-(piperidin-1-carbonyl)docosahydro-2H,4H-spiro[azeto[2,1-u]pyrrolo[2,1-i][1,4,7,10,13,16,19,22,25,28,31]undecazacyclotetratriacontyne-21,1′-cyclopentane]-4,7,10,13,17,20,23,28,31,34,37(14H,22H)-undecone] ([NMeL]I[NMeA][Aze][NMeCha][Sar][X37]P[Ac5c][NMeGly(cPent)][NMeD]-Piperidide; lactam N-11) | 100 to 500 nM
CC[C@H](C)[C@@H]1NC(=O)[C@H](CC(C)C)N(C)C(=O)C[C@@H](C(=O)N(C)C)N(C)C(=O)[C@H](C2CCCC2)N(C)C(=O)C2(CCCC2)NC(=O)[C@H](CC(=O)N2CCCC2)N(C)C(=O)[C@H](CCc2ccc(C(F)(F)F)c(Cl)c2)NC(=O)CN(C)C(=O)[C@H](CC2CCCCC2)N(C)C(=O)[C@@H]2CCN2C(=O)[C@H](C)N(C)C1=O [Compound 2097] ([NMeL]I[NMeA][Aze][NMeCha][Sar][hPhe(3-Cl-4-CF3)][NMeD](Pyrrolidide)[Ac5c][NMeGly(cPent)][NMeD]-NMe2; lactam N-11) | 100 to 500 nM
CC[C@H](C)[C@@H]1NC(=O)[C@H](CC(C)C)N(C)C(=O)C[C@@H](C(=O)N(C)C)N(C)C(=O)[C@H](C2CCCC2)N(C)C(=O)C2(CCCC2)NC(=O)[C@H](CC(=O)N2CCC2)N(C)C(=O)[C@H](CCc2ccc(C(F)(F)F)c(Cl)c2)NC(=O)CN(C)C(=O)[C@H](CC2CCCCC2)N(C)C(=O)[C@@H]2CCN2C(=O)[C@H](C)N(C)C1=O [Compound 2102] ([NMeL]I[NMeA][Aze][NMeCha][Sar][hPhe(3-Cl-4-CF3)][NMeD](Azetidin(1-yl))[Ac5c][NMeGly(cPent)][NMeD]-NMe2; lactam N-11) | 100 to 500 nM
CC[C@H](C)[C@@H]1NC(=O)[C@H](CC(C)C)N(C)C(=O)C[C@@H](C(=O)N2CCCCC2)N(C)C(=O)[C@H](C(C)C)N(C)C(=O)C2(CCCC2)NC(=O)[C@@H]2C[C@@H](n3ccnn3)CN2C(=O)[C@H](CCc2ccc(C(F)(F)F)c(Cl)c2)NC(=O)CN(C)C(=O)[C@H](CC2CCCC2)N(C)C(=O)CN(C)C(=O)CN(C)C1=O [Compound 2113, (3S,9S,18S,21S,25S,28S,34S,36R)-3-[2-[3-chloro-4-(trifluoromethyl)phenyl]ethyl]-9-(cyclopentylmethyl)-21-isobutyl-28-isopropyl-7,10,13,16,22,26,29-heptamethyl-18-[(1S)-1-methylpropyl]-25-(piperidine-1-carbonyl)-36-(triazol-1-yl)spiro[1,4,7,10,13,16,19,22,26,29,32-undecazabicyclo[32.3.0]heptatriacontane-31,1′-cyclopentane]-2,5,8,11,14,17,20,23,27,30,33-undecone] ([NMeL]I[Sar][Sar][NMeAla(cPent)][Sar][hPhe(3-Cl-4-CF3)][X85][Ac5c][NMeV][NMeD]-Piperidide; lactam N-11) | > 500 nM
